According to patent US20250161307A1, “PYRAZOLOPYRIMIDINES AS MODULATORS OF SPERMINE OXIDASE” (Janssen Pharmaceutica NV, priority 2022, published 2025):
Counter-ions that a name gives are not always drawn.

How the values were obtained:
hPAOX = hPAOX (Homo sapiens (Human), UniProt Q6QHF9); assay: Human PAOX assay (HyPerBlu chemiluminescent detection of hydrogen peroxide); type: biochemical; conditions: 60 pM recombinant PAOX, 20 μM N-acetylspermine substrate
Description: (§1) The direct detection of hydrogen peroxide produced from the enzymatic reaction of hSMOX or hPAOX in a biochemical assay format was measured using HyPerBlu (Lumigen, Southfield, MI), a small molecule boronate probe that reacts with hydrogen peroxide to generate a chemiluminescent signal. Inhibition of hSMOX or hPAOX enzyme results in a decrease in luminescence.
The hPAOX assay was run and the data analyzed similarly to the hSMOX assay described above, except the reactions contained 60 pM recombinant PAOX with an N-terminal His tag expressed from sf9 insect cells and used 20 μM N-acetylspermine as the substrate.

SMOX = SMOX (Homo sapiens (Human), UniProt Q9NWM0); assay: Human SMOX assay (HyPerBlu chemiluminescent detection of hydrogen peroxide); type: biochemical; conditions: 2.5 nM full length hSMOX, spermine substrate, 1 h at room temperature, luminescence read; read-out: SMOx_IC50
Description: as §1
Test compounds (75 nL) dissolved in DMSO were added to a 384-well white assay plate (Greiner Bio-one, catalog #784075) using an ECHO Acoustic Dispenser (Labcyte). Each compound was serially diluted 3-fold in DMSO to prepare an 11-point dose response curve (columns 1-22). Column 23 and 24 contained 75 nL of 2 mM chlorhexidine and DMSO, respectively, to represent the 100% inhibited versus the neutral control reactions.
Subsequently, 3 μL/well of the substrate solution prepared in assay buffer (10 mM Hepes, pH 7.4, 150 mM NaCl, 1 mM EGTA, 0.01% Pluronic F-127, 0.05% ovalbumin) was dispensed into the assay plate followed by 3 μL/well of full length hSMOX enzyme with an N-terminal His tag from E. coli prepared in assay buffer to initiate the reactions. After a 1 h incubation at room temperature, 6 μL/well of HyPerBlu was added. After a 30 min incubation, the hydrogen peroxide product generated from the hSMOX reactions was measured using an endpoint luminescence read on the PHERAStar FS/FSX microplate reader (BMG LABTECH).
The final assay conditions included 10 mM Hepes, pH 7.4, 150 mM NaCl, 1 mM EGTA, 0.01% Pluronic F-127, 0.05% ovalbumin, 2.5 nM hSMOX, 30 µM spermine, and 1.25% DMSO.
Dose-response curves were fit and compound IC50 values were determined using Genedata Screener (Genedata AG).

Sequence of hPAOX (Q6QHF9 whole entry): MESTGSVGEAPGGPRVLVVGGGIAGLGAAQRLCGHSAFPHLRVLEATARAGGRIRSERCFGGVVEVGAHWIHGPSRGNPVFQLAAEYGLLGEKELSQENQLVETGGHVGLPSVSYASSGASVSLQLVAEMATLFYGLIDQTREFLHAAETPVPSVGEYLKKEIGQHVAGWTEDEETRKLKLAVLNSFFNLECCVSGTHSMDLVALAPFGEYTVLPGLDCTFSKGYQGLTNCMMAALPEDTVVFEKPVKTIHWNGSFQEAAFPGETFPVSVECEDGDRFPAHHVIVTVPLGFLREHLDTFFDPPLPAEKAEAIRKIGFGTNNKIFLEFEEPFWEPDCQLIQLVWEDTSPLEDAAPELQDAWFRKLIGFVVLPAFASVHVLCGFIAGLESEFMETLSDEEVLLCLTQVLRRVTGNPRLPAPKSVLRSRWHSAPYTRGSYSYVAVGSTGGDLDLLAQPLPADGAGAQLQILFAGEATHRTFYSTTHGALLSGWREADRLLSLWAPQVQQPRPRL
Sequence of SMOX (Q9NWM0 whole entry): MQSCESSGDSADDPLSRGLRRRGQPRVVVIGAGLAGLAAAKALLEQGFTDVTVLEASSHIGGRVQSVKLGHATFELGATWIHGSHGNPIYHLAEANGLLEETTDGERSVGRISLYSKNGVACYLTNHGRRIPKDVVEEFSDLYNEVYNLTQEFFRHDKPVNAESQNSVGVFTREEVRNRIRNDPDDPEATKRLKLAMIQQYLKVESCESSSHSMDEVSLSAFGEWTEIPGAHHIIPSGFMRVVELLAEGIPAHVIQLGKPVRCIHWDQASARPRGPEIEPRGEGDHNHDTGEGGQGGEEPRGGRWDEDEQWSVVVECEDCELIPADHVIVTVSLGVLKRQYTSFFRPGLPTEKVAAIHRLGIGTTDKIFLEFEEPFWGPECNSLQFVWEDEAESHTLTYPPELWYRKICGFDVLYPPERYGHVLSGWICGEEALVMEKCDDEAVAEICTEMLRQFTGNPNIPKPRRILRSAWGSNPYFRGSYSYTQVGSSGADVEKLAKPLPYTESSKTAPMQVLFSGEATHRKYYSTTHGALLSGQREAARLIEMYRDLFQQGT

Compound | IC50 (hPAOX) | IC50 (SMOX)
CN1CCC(NC(=O)c2cc3nc(-c4ccccc4)cc(N4CCCCC4)n3n2)CC1 [Example 74, N-(1-methylpiperidin-4-yl)-5-phenyl-7-(piperidin-1-yl)pyrazolo[1,5-a]pyrimidine-2-carboxamide] | 9.83 µM | 17700 nM
CC(C)Oc1cc(-c2ccccc2)nc2cc(C(=O)NC3CN(C)C3)nn12 [Example 75, 7-isopropoxy-N-(1-methylazetidin-3-yl)-5-phenylpyrazolo[1,5-a]pyrimidine-2-carboxamide] | 26.7 µM | 737 nM
CN1CC(NC(=O)c2cc3nc(N4CCCC4)cc(-c4ccccc4)n3n2)C1 [Example 98, N-(1-methylazetidin-3-yl)-7-phenyl-5-(pyrrolidin-1-yl)pyrazolo[1,5-a]pyrimidine-2-carboxamide] | > 31.2 µM | 4590 nM
CN(CCCn1ccnc1)C(=O)c1cc2nc(-c3ccccc3)cc(-c3ccccc3)n2n1 [Example 11, N-(3-(1H-Imidazol-1-yl)propyl)-N-methyl-5,7-diphenylpyrazolo[1,5-a]pyrimidine-2-carboxamide] | 10.3 µM | 567 nM
CC1C(NC(=O)c2cc3nc(-c4ccccc4)cc(-c4ccccc4)n3n2)CN1C (stereo not shown) [Example 55, N-(1,2-Dimethylazetidin-3-yl)-5,7-diphenylpyrazolo[1,5-a]pyrimidine-2-carboxamide] | 6.53 µM | 593 nM
CN1CC[C@@H](NC(=O)c2cc3nc(-c4ccccc4)cc(N4CCCCC4)n3n2)C1 (single isomer, unassigned) [Example 72, (*R)—N-(1-methylpyrrolidin-3-yl)-5-phenyl-7-(piperidin-1-yl)pyrazolo[1,5-a]pyrimidine-2-carboxamide trifluoroacetate] | 7.13 µM | 1010 nM
CN1CC(NC(=O)c2cc3nc(N4CCCCC4)cc(-c4ccccc4)n3n2)C1 [Example 99, N-(1-methylazetidin-3-yl)-7-phenyl-5-(piperidin-1-yl)pyrazolo[1,5-a]pyrimidine-2-carboxamide] | 7.08 µM | 7710 nM
O=C(NC1CCC1)c1cc2nc(-c3ccccc3)cc(-c3ccccc3)n2n1 [Example 41, N-Cyclobutyl-5,7-diphenylpyrazolo[1,5-a]pyrimidine-2-carboxamide] | > 31.2 µM | > 31200 nM

The next compounds have a lower IC50 (hPAOX) than those just listed; values first:

IC50 (hPAOX) | IC50 (SMOX) | Compound
1.46 µM | 779 nM | O=C(NCCCn1ccnc1)c1cc2nc(-c3ccccc3)cc(NC3CCC3)n2n1 [Example 64, N-(3-(1H-Imidazol-1-yl)propyl)-7-(cyclobutylamino)-5-phenylpyrazolo[1,5-a]pyrimidine-2-carboxamide]
0.47 µM | 956 nM | O=C(NCCCn1ccnc1)c1cc2nc(-c3ccccc3)cc(C3CCC3)n2n1 [Example 109, N-(3-(1H-imidazol-1-yl)propyl)-7-cyclobutyl-5-phenylpyrazolo[1,5-a]pyrimidine-2-carboxamide]
1.14 µM | 4580 nM | O=C(NCCc1ccncc1)c1cc2nc(-c3ccccc3)cc(-c3ccccc3)n2n1 [Example 38, 5,7-Diphenyl-N-(2-(pyridin-4-yl)ethyl)pyrazolo[1,5-a]pyrimidine-2-carboxamide]
0.085 µM | 156 nM | O=C(NCCNc1ccccn1)c1cc2nc(-c3ccccc3)cc(-c3ccccc3)n2n1 [Example 28, 5,7-Diphenyl-N-(2-(pyridin-2-ylamino)ethyl)pyrazolo[1,5-a]pyrimidine-2-carboxamide]
4.21 µM | 1030 nM | CN1CC[C@H](NC(=O)c2cc3nc(-c4ccccc4)cc(N4CCCCC4)n3n2)C1 (single isomer, unassigned) [Example 73, (*S)—N-(1-methylpyrrolidin-3-yl)-5-phenyl-7-(piperidin-1-yl)pyrazolo[1,5-a]pyrimidine-2-carboxamide trifluoroacetate]
5.71 µM | 2880 nM | O=C(NCCCn1ccnc1)c1cc2nc(-c3ccccc3)cc(N3CCOCC3)n2n1 [Example 59, N-(3-(1H-Imidazol-1-yl)propyl)-7-morpholino-5-phenylpyrazolo[1,5-a]pyrimidine-2-carboxamide]
